Test results reported in US20250034182A1, “PHOSPHOLIPID COMPOUNDS AND METHODS OF MAKING AND USING THE SAME” (priority 2021, published 2025).
Where two headings read alike, the source gives them in different places.

What was measured:
Type in all cases: cell-based
[1] = HCV Replicon 1B CC50, calcein AM (Example Q); settings: calcein AM fluorescence, read-out: HCV Replicon 1B CC50 (nM) (per Ex. Q)
Experimental: Compounds were serially diluted in ten steps of 1:3 dilutions in 384-well plates. All serial dilutions were performed in four replicates per compound within the same 384-well plate. An HCV protease inhibitor ITMN-191 at […] was added as a control of 100% inhibition of HCV replication while puromycin at 10 mM was included as a control of 100% cytotoxicity. To each well of a black polystyrene 384-well plate (Greiner Bio-one, Monroe, NC), 90 μL of cell culture medium (without Geneticin) containing 2000 suspended HCV replicon cells was added with a Biotek μFlow workstation. For compound transfer into cell culture plates, 0.4 μL of compound solution from the compound serial dilution plate was transferred to the cell culture plate on a Biomek FX workstation. The DMSO concentration in the final assay wells was 0.44%. The plates were incubated for 3 days at 37° C. with 5% CO2 and 85% humidity. The HCV replicon assay was a multiplex assay, able to assess both cytotoxicity and antireplicon activity from the same well. The CC50 assay was performed first. The media in the 384-well cell culture plate was aspirated, and the wells were washed four times with 100 μL of PBS each, using a Biotek ELX405 plate washer. A volume of 50 μL of a solution containing 400 nM calcein AM (Anaspec, Fremont, CA) in 1×PBS was added to each well of the plate with a Biotek μFlow workstation. The plate was incubated for 30 min at room temperature before the fluorescence signal (excitation 490 nm, emission 520 nm) was measured with a Perkin-Elmer Envision plate reader. The EC50 assay was performed in the same wells as the CC50 assay. The calcein-PBS solution in the 384-well cell culture plate was aspirated with a Biotek ELX405 plate washer. A volume of 20 μL of Dual-Glo luciferase buffer (Promega, Madison, WI) was added to each well of the plate with a Biotek μFlow Workstation. The plate was incubated for 10 min at room temperature. A volume of 20 μL of a solution containing a 1:100 mixture of Dual-Glo Stop & Glo substrate (Promega, Madison, WI) and Dual-Glo Stop & Glo buffer (Promega, Madison, WI) was added to each well of the plate with a Biotek μFlow Workstation. The plate was then incubated at room temperature for 10 min before the luminescence signal was measured with a Perkin-Elmer Envision Plate Reader.

[2] = test system: Respiratory syncytial virus recombinant with luciferase (RSV-Luc5) in HEp-2 cells; assay: HEp-2 RSV-Luc5 384-well assay (EC50 RSVFLUC Hep2-384, Example R); settings: human respiratory syncytial virus, HEp-2, 72 h, read-out: RSV Hep-2 FLuc EC50 (nM) (per Ex. R)
Source text: HEp-2 cell line was purchased from ATCC (Manassas, VA Cat #CCL-23) and maintained in Dulbecco's […] (DMEM) (Corning, New York, NY, Cat #15-018CM) supplemented with 10% fetal bovine serum (FBS) (Hyclone, Logan, UT, Cat #SH30071-03) and 1× Penicillin-Streptornycin-L-Glutamine (Corning, New York, NY, Cat #30-009-CI). Cells were passaged 2 times per week to maintain sub-confluent densities and were used for experiments at passage 5-20. Respiratory syncytial virus recombinant with luciferase (RSV-Luc5) direct pelleted virus (≥1×107 TCID50/ml) was purchased from Microbiologics (Saint Cloud, MN). Viral replication was determined in HEp-2 cells in the following manner.
Compounds are prepared in 384-well polypropylene plates (Greiner, Monroe, NC, Cat #784201) with 8 compounds per plate in grouped replicates of 4 at 10 serially diluted concentrations (1:3).
HEp-2 cells were suspended in DMEM (supplemented with 10% FBS and 1×Penicillin-Streptonycin-L-Glutimine) and 60 μL of 4,000 cells per well were seeded into 384-well plates (Greiner, Monroe, NC, Cat #781080) using Biotek MultiFlo dispenser. After overnight incubation at 37° C. and 5% CO2, 0.4 uL of three-fold serial dilutions of compound was added to each well using a Biomek FX pipette station. RSV-Luc5 viruses were diluted in DMEM (supplemented with 10% FBS and 1× Penicillin-Streptonycin-L-Glutainie) at an MOI=0.5. Virus suspension was added to each 384-well compound plate at 20 uL per well using a Biotek MultiFlo dispenser. The assay plates were incubated for 3 days at 37° C. and 5% CO2. At the end of incubation, One-Glo reagent (Promega, Madison, WI, Cat #E6120) was prepared. The assay plate and the reagent were equilibrated to room temperature for 30 minutes. 50 uL per well of medium was removed from assay plate and 40 uL per well of One-Glo reagent was added to each plate by Biomek FX. The plates were sat at room temp for 15 minutes. Viral replication was then assessed by measuring luminescence signal using and Envision plate reader. Remdesivir was used as positive control and DMSO was used as negative control. Values were normalized to the positive and negative controls (as 0% and 100% replication, respectively) and data was fitted using non-linear regression analysis by Gilead's dose response tool. The EC50 value for each compound was then determined as the concentration reducing the viral replication by 50%.

[3] = test system: dengue virus type 2 in Huh7 hepatoblastoma cells; assay: Dengue Virus-2 Huh-7 EC50 (Example W); settings: MOI of 0.07, CPE, neutral red dye, read-out: Dengue Virus-2 Huh-7 EC50 (nM) (per Ex. W)
Experimental: Huh7 hepatoblastoma cells were seeded onto 96-well plates and incubated at 37° C. with 5% CO2 overnight. The plates were seeded at a cell concentration that will yield >70% confluent monolayers in each well after overnight incubation. Eight 3-fold serial dilutions of compounds were diluted in test media (MEM supplemented with 2% FBS and 50 μg/mL gentamicin). The highest test compound concentration was 50 μg/mL. 100 μL of each concentration was added to 5 test wells on the 96-well plate. Of these 5 test wells, 3 wells of each dilution were infected with dengue virus type 2, diluted in test media (approximately 2000 CCID50 per well for an MOI of 0.07). Test medium (100 μL) with no virus was added to 2 wells to represent the uninfected cytotoxicity controls. Six additional infected wells received 100 μL media alone as untreated virus controls. Further, 100 μL of media alone was added to 6 uninfected wells to serve as uninfected, untreated controls. Cultures were incubated at 37° C.+5% CO2 until >80% CPE is observed. After cytopathic effect (CPE) is observed microscopically, 0.011% neutral red dye was added for approximately 2 hours. The neutral red dye was removed and wells were rinsed once with PBS to remove residual, unincorporated dye. A 50:50 Sorensen citrate buffer/ethanol solution was added and incubated at room temperature for >30 minutes with agitation, followed by measurement of neutral red dye using a spectrophotometer at 540 nm. The resulting optical density measurement was converted to percent signal of the infected, untreated cell control normalizing to virus controls. EC50 and CC50 values were determined by linear regression analysis.

Row | Structure (SMILES) | CC50 at 3 days ([1]; HCV replicon cells (1B)) [nM] | EC50 [2] [nM] | EC50 [3] [nM] | CC50 at 3 days ([1]; HCV replicon cells) [nM]
1 | CCCCCCCCCCCCCCCCCCOC[C@H](COP(=O)(O)OC[C@@]1(C#N)O[C@@H](c2ccc3c(N)ncnn23)[C@H](O)[C@@H]1O)OCc1cc(F)cc(C#N)c1 [Compound 1, ((2R,3S,4R,5S)-5-(4-aminopyrrolo[2,1-f][1,2,4]triazin-7-yl)-2-cyano-3,4-dihydroxytetrahydrofuran-2-yl)methyl ((R)-2-((3-cyano-5-fluorobenzyl)oxy)-3-(octadecyloxy)propyl) hydrogen phosphate] | > 44400 | 100 | 9700 | –
2 | CCCCCCCCCCCCCCCCCCOC[C@H](COP(=O)(O)OC[C@@]1(C#N)O[C@@H](c2ccc3c(N)ncnn23)[C@H](O)[C@@H]1O)Oc1cccc(C#N)n1 [Compound 21, ((2R,3S,4R,5S)-5-(4-aminopyrrolo[2,1-f][1,2,4]triazin-7-yl)-2-cyano-3,4-dihydroxytetrahydrofuran-2-yl)methyl ((R)-2-((6-cyanopyridin-2-yl)oxy)-3-(octadecyloxy)propyl) hydrogen phosphate] | > 44400 | 136 | – | –
3 | CCCCCCCCCCCCCCCCCCC[C@H](COP(=O)(O)OC[C@@]1(C#N)O[C@@H](c2ccc3c(N)ncnn23)[C@H](O)[C@@H]1O)OCc1ccc(-n2cncn2)c(C#N)c1 [Compound 30, ((2R,3S,4R)-5-(4-aminopyrrolo[2,1-f][1,2,4]triazin-7-yl)-2-cyano-3,4-dihydroxytetrahydrofuran-2-yl)methyl ((R)-2-((3-cyano-4-(1H-1,2,4-triazol-1-yl)benzyl)oxy)henicosyl) hydrogen phosphate] | – | – | 1200 | > 44400
4 | CCCCCCCCCCCCCCCCCCOC[C@H](COP(=O)(O)OC[C@@]1(C#N)O[C@@H](c2ccc3c(N)ncnn23)[C@H](O)[C@@H]1O)OCc1cccc(C#N)n1 [Compound 68, ((2R,3S,4R)-5-(4-aminopyrrolo[2,1-f][1,2,4]triazin-7-yl)-2-cyano-3,4-dihydroxytetrahydrofuran-2-yl)methyl ((R)-2-((6-cyanopyridin-2-yl)methoxy)-3-(octadecyloxy)propyl) hydrogen phosphate] | – | 118 | – | > 44400
5 | CCCCCCCCCCCCCCCCCCCC[C@@H](COP(=O)(O)OC[C@@]1(C#N)O[C@@H](c2ccc3c(N)ncnn23)[C@H](O)[C@@H]1O)OCc1cc(F)cc(C#N)c1 [Compound 70, ((2R,3S,4R)-5-(4-aminopyrrolo[2,1-f][1,2,4]triazin-7-yl)-2-cyano-3,4-dihydroxytetrahydrofuran-2-yl)methyl ((S)-2-((3-cyano-5-fluorobenzyl)oxy)docosyl) hydrogen phosphate] | – | – | 12000 | > 44400
6 | CCCCCCCCCCCCCCCCCCOC[C@@H](COP(=O)(O)OC[C@@]1(C#N)O[C@@H](c2ccc3c(N)ncnn23)[C@H](O)[C@@H]1O)Oc1ccc(C#N)nc1 [Compound 72, ((2R,3S,4R,5S)-5-(4-aminopyrrolo[2,1-f][1,2,4]triazin-7-yl)-2-cyano-3,4-dihydroxytetrahydrofuran-2-yl)methyl ((S)-2-((6-cyanopyridin-3-yl)oxy)-3-(octadecyloxy)propyl) hydrogen phosphate] | – | – | 2400 | > 44400
7 | CCCCCCCCCCCCCCCCC[C@@H](COP(=O)(O)OC[C@@]1(C#N)O[C@@H](c2ccc3c(N)ncnn23)[C@H](O)[C@@H]1O)OCc1cc(F)cc(C#N)c1 [Compound 74, ((2R,3S,4R)-5-(4-aminopyrrolo[2,1-f][1,2,4]triazin-7-yl)-2-cyano-3,4-dihydroxytetrahydrofuran-2-yl)methyl ((S)-2-((3-cyano-5-fluorobenzyl)oxy)nonadecyl) hydrogen phosphate] | – | – | 10000 | > 44400
8 | CCCCCCCCCCCCCCCC[C@@H](COP(=O)(O)OC[C@@]1(C#N)O[C@@H](c2ccc3c(N)ncnn23)[C@H](O)[C@@H]1O)OCc1cc(F)cc(C#N)c1 [Compound 79, ((2R,3S,4R,5S)-5-(4-aminopyrrolo[2,1-f][1,2,4]triazin-7-yl)-2-cyano-3,4-dihydroxytetrahydrofuran-2-yl)methyl ((S)-2-((3-cyano-5-fluorobenzyl)oxy)octadecyl) hydrogen phosphate] | > 44400 | – | – | –
9 | CCCCCCCCCCCCCCC[C@H](COP(=O)(O)OC[C@@]1(C#N)O[C@@H](c2ccc3c(N)ncnn23)[C@H](O)[C@@H]1O)OCc1cc(F)cc(C#N)c1 [Compound 80, ((2R,3S,4R,5S)-5-(4-aminopyrrolo[2,1-f][1,2,4]triazin-7-yl)-2-cyano-3,4-dihydroxytetrahydrofuran-2-yl)methyl ((R)-2-((3-cyano-5-fluorobenzyl)oxy)heptadecyl) hydrogen phosphate] | > 44400 | – | – | –
10 | CCCCCCCCCCCCCCCCCC[C@H](COP(=O)(O)OC[C@@]1(C#N)O[C@@H](c2ccc3c(N)ncnn23)[C@H](O)[C@@H]1O)OCc1cc(Cl)cc(C#N)c1 [Compound 81, ((2R,3S,4R,5S)-5-(4-aminopyrrolo[2,1-f][1,2,4]triazin-7-yl)-2-cyano-3,4-dihydroxytetrahydrofuran-2-yl)methyl ((R)-2-((3-chloro-5-cyanobenzyl)oxy)icosyl) hydrogen phosphate] | > 44400 | – | – | –
11 | CCCCCCCCCCCCCCCCCCC[C@H](COP(=O)(O)OC[C@@]1(C#N)O[C@@H](c2ccc3c(N)ncnn23)[C@H](O)[C@@H]1O)OCc1cc(Cl)cc(C#N)c1 [Compound 82, ((2R,3S,4R,5S)-5-(4-aminopyrrolo[2,1-f][1,2,4]triazin-7-yl)-2-cyano-3,4-dihydroxytetrahydrofuran-2-yl)methyl ((R)-2-((3-chloro-5-cyanobenzyl)oxy)henicosyl) hydrogen phosphate] | > 44400 | – | – | –
